Test results as given in BindingDB's records for doi:10.7270/Q2J101KZ (University of Pittsburgh, 2007).

Molecular target: T1, M-phase inducer phosphatase 2 (Homo sapiens, UniProt P30305)
T1 sequence (P30305 whole entry): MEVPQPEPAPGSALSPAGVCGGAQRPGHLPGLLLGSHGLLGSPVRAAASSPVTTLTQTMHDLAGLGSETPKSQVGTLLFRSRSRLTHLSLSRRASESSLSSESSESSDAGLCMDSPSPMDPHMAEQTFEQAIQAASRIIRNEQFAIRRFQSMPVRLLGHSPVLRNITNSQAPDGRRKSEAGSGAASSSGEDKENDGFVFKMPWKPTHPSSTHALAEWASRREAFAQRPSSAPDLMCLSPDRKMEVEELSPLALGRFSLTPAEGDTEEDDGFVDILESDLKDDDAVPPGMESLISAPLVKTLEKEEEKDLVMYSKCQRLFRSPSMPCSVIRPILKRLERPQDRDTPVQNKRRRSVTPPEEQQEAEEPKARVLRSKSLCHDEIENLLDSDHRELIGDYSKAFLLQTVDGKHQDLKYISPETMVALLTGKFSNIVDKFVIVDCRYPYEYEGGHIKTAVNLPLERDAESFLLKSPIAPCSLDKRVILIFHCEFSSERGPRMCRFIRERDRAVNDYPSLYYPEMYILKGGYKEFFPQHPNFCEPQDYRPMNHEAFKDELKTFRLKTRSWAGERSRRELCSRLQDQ
Assay: inhibition of Cdc25B catalytic domain activity – biochemical, with glutathione, probe assessment, dose response (AID 671)

SMILES	IC50 [µM]
COc1ccc2noc3c2c1C(=O)c1ccccc1-3 [MLS000106874]	> 50
Cc1ccccc1Nc1cc2ccccc2c(O)n1 [3-[(2-methylphenyl)amino]-2H-isoquinolin-1-one]	> 50
N#Cc1c(N)sc(=S)c2c1CCN(Cc1ccccc1)C2 [3-Amino-7-benzyl-1-thioxo-5,6,7,8-tetrahydro-1H-thiopyrano[3,4-c]pyridine-4-carbonitrile]	43
O=C(OC1CCCCC1)c1ccc2c(c1)C1C=CCC1C(C(=O)O)N2 (stereo unspecified) [SMR000019385]	2.79
Cc1ccc2c(c1C)NC(C(=O)O)C1CC=CC21 (stereo unspecified)	4.73
c1ccc(CSc2nnc(-c3ccco3)c(-c3ccco3)n2)cc1 [MLS-0029114.0001]	11.1
O=C1Cc2ccccc2C(=O)N1CCc1ccccc1 [2-(2-phenylethyl)-4H-isoquinoline-1,3-dione]	> 50
COc1cccc2c1NC(C(=O)O)C1CC=CC21 (stereo unspecified) [SMR000009698]	8.23
[O-]/[N+](=C\c1ccncc1)c1ccccc1	> 50
N#Cc1c(N2CCCC2)nc(N)c2c(N)nc(N3CCCC3)cc12 [SMR000061605]	> 50
COc1ccc(Br)cc1C=c1sc2nc(-c3ccco3)nn2c1=O [5-[(5-bromanyl-2-methoxy-phenyl)methylidene]-2-(furan-2-yl)-[1,3]thiazolo[3,2-b][1,2,4]triazol-6-one]	2.13
O=C(O)C1Nc2c(O)cccc2C2C=CCC12 (stereo unspecified)	6.76
CCn1nc(-c2cccs2)nc2c(=O)n(C)c(=O)nc1-2 [1-ethyl-6-methyl-3-thiophen-2-yl-pyrimido[5,4-e][1,2,4]triazine-5,7-dione]	> 50
O=C1C=Cc2ccccc2C1=O [1,2-dihydronaphthalene-1,2-dione]	25
Oc1nc(Nc2ccccc2)cc2ccccc12 [MLS000043701]	> 50
[O-]/[N+](=C\c1ccc(OC(F)F)cc1)c1ccccc1 [1-[4-(difluoromethoxy)phenyl]-N-phenylmethanimine oxide]	> 50
Cn1ncnc2c(=O)n(C)c(=O)nc1-2	35.5
CCOC(=O)C(C(=O)OCC)c1cc(Br)c2noc3c2c1C(=O)c1ccccc1-3 [MLS000038842]	> 50
O=C(NC1(O)C(=O)c2ccccc2C1=O)c1ccccc1 [N-(2-hydroxy-1,3-dioxo-2-indenyl)benzamide]	> 50
O=C(Nc1ccc2nc(-c3ccco3)c(-c3ccco3)nc2c1)N1CCCCCC1	23.7
CCn1nc(-c2ccccc2)nc2c(=O)n(C)c(=O)nc1-2 [1-Ethyl-6-methyl-3-phenyl-1H-pyrimido[5,4-e][1,2,4]triazine-5,7-dione]	> 50
COc1cccc2c(C)c(C(=O)O)[nH]c12	6.8
Cc1c(N=c2c(=O)c3ccccc3c2=O)c(=O)n(-c2ccccc2)n1C [MLS000105950]	> 50
Nc1cccc2cnccc12 [isoquinolin-5-amine]	> 50
CCOc1ccc2noc3c2c1C(=O)c1ccccc1-3 [MLS000106837]	> 50
CC(=O)Nc1cc(OC(C)=O)c2nonc2c1OC(C)=O [Acetic acid 7-acetoxy-5-acetylamino-benzo[1,2,5]oxadiazol-4-yl ester]	> 50
